{
  "source": "patent US20090131513A1",
  "about": "“ANTI-INFLAMMATORY MODALITIES” (Novogen Research Pty Ltd., priority 2005, published 2009)",
  "system": "eicosanoid synthesis by the inflamed colon",
  "assay": "PGE2 and TXB2 production by cultured colons from DSS colitis mice (Experiment 4)",
  "assay_type": "in vivo",
  "procedure": "Groups of mice (n=5) were dosed once daily with Compound 11 mg/kg or vehicle throughout the experiment, and killed either on day 6, 9 or 13. Colons were removed, opened longitudinally and washed in PBS with pen/strep (100 U/ml/100 μg/ml, Invitrogen) with added fungizone (2.5 ug/ml, Invitrogen). They were then cut into small portions and approximately 100 mg colon was placed into one well of a 24-well plate either in the presence or absence of ConA (10 μg/ml, Sigma) containing 1 ml modified RPMIc (pen/strep and fungizone as above) for 18-24 hours. Supernatant was collected, centrifuged and stored at −80° C. PGE2 and TXB2 in the culture supernatants were measured in triplicate by ELISA (Cayman Chemical).",
  "data": [
    {"smiles": "O=C1c2ccc(O)c(Br)c2OCC1c1ccc(O)cc1", "note": "(stereo not drawn) [Compound 1, 3-(4-hydroxyphenyl)-7-hydroxy-8-bromo-chroman-4-one]", "values": [
      {"measurement": "PGE2 and TXB2 responses of colons cultured in the presence of ConA", "setting": "ConA 10 μg/ml", "value": "reduce these responses, although not significantly so"},
      {"measurement": "TXB2 production by colons versus DSS + vehicle", "setting": "cultured in the absence of mitogenic stimulation, day 6 and day 9 (p<0.05)", "value": "less TXB2"},
      {"measurement": "PGE2 production by colons versus DSS + vehicle", "setting": "cultured in the absence of mitogenic stimulation, day 9 and day 13", "value": "less PGE2"}
    ]}
  ]
}
